Data: patent US10414721B1, “Inhibitor of endocannabinoid cellular reuptake” (University of Bern, priority 2018, dated 2019)
Like-named read-outs stand apart in the source and are kept apart here.

How the values were obtained:
AEA uptake in U937 cells = assay: AEA uptake inhibition in U937 cells; type: cell-based; details: for IC50 / IC50 for AEA uptake inhibition: U937 cells
Method: Based on the natural product (2E,4E)-N-isobutylamidedodeca-2,4-dienamide from the medicinal plant E. purpurea as a starting point, a library of 634 of analogs and derivatives with varying alkyl chain length was synthesized, and structure of the head group moiety analyzed. All new derivatives were tested for AEA uptake inhibition in U937 cells using a high-content screening assay.
(§1) All radioactivity-based AEA and 2-AG uptake and release assays performed in U937, and HMC-1 cells were carried out using two different assay formats as previously reported. AEA and 2-AG uptake assay in Neuro2a and primary mouse cortical neurons were performed with a different method disclosed in Chicca 2017.

[1] = 14C-WOBE437 saturation binding to U937 membranes; details: for competition with 14C-WOBE437 binding: brain and U937 membranes
Method: (§2) In addition to their effects on AEA uptake, the inhibition of FAAH was thoroughly investigated for all nanomolar inhibitors. […] The lack of significant FAAH inhibition by WOBE437 was established in different assay systems using human recombinant enzyme, cell and brain homogenates. […] Importantly, WOBE437 (1 μM) inhibited AEA uptake also in primary mouse cortical neurons by 50% after 2-7 min of incubation with a smaller inhibition (20-35%) upon longer incubation (10-20 min, FIG. 1F). […] In Neuro2a cells, incubation with WOBE437 (5 μM) for 2 and 5 min reduced overall uptake by 40%. (FIG. 1G). […] Then cells were treated with radiolabeled ^14C-WOBE437 to investigate the cellular penetration of the compound. In U937 cells, the vast majority of the radioactive signal was collected in the extracellular and membrane-bound fractions (75-90%), with negligible amounts (5-9%) detected in the intracellular fraction (FIGS. 2A-D). […] In order to further investigate this point, ^14C-WOBE437 was applied to membrane preparations generated in-house from mouse brain and U937 cells. […] The Kd values are in line with the IC50 values shown in the functional AEA uptake assays in Neuro2a and U937 cells (FIGS. 1C and 1D). In further experiments, 10 nM of ^14C-WOBE437 was co-incubated with different concentrations of AEA and U937 membranes. […] Furthermore, the endocannabinoids AEA and noladin ether and the AEA uptake inhibitor OMDM-2 could compete with ^14C-WOBE437 binding in brain and U937 membranes. […] Secondary plots of the slope (Kmapp/Vmaxapp vs. [WOBE437]) and intercept (1/Vmaxapp vs. [WOBE437]) confirmed the competitive inhibition of AEA uptake.

[2] = test system: main EC degrading enzymes (FAAH, MAGL); details: cited from earlier work
[3] = test system: 2-AG uptake in Neuro2a cells; assay: 2-AG uptake and hydrolysis in Neuro2a cells; type: cell-based, mouse; details: Neuro2a cells, time course
Method: as §1

C57BL6/J mice = details: repeated administrations; cited from earlier work
CB1 receptors = details: repeated administrations; cited from earlier work
[4] = 14C-WOBE437 saturation binding to mouse brain membranes; details: mouse brain membranes
Method: as §2

U937 cells = assay: Localization of 14C-WOBE437 in cellular fractions of U937 cells; type: cell-based
Method: FIGS. 2A-D: Different initial amounts of ^14C-WOBE437 were incubated for 15 min with 1×10^6 of U937 cells at 37° C. Afterwards, cells were centrifuged and the ^14C-signal was measured from the extracellular (light grey), membrane-bound (dark grey) and intracellular (white) fraction. The results are reported in absolute amounts and as percentage of the initial amount.
The cell penetration and tissue distribution of ^14C-WOBE437 was assessed in U937 cells and C57BL6/N mice as described in Chicca 2017.

[5] = LC-MS/MS quantification of WOBE437 in tissues after i.p. injection; type: in vivo, mouse; details: 10 mg/kg i.p., C57BL6/N mice, after 1 h

CCCCCCC/C=C/C=C/C(=O)NCCc1cccnc1 [2-(pyridin-3-yl)]ethyl]
IC50 (AEA uptake in U937 cells; 100 nM total AEA): 101 nM | IC50 for AEA uptake inhibition (AEA uptake in U937 cells; 100 nM total AEA): nanomolar range

CCCCCCC/C=C/C=C/C(=O)NCCO [(2E,4E)-dodecadienoyl ethanolamine]
IC50 (AEA uptake in U937 cells): 3470 nM

CCCCC/C=C\C/C=C\C/C=C\C/C=C\CCCC(=O)NCCO [AEA, N-arachidonoylethanolamine]
effect on 14C-WOBE437 binding curve ([1]; 10 nM 14C-WOBE437 co-incubated with increasing AEA): increase of Kd values, while not significantly modifying Bmax values | competition with 14C-WOBE437 binding [1]: could compete

CCCCC/C=C\C/C=C\C/C=C\C/C=C\CCCC(=O)Nc1ccc(O)cc1 [AM404, N-(4-hydroxyphenyl)arachidonamide]
substrate of FAAH or MAGL ([2]; h/rFAAH or hMAGL): substrates for h/rFAAH or hMAGL

O=C(Oc1ccc([N+](=O)[O-])cc1)N1CCC(C(O)(c2ccc3c(c2)OCO3)c2ccc3c(c2)OCO3)CC1 [JZL184]
effect on 2-AG uptake and hydrolysis [3]: specifically inhibited hydrolysis | 2-AG overflow relative to basal levels (C57BL6/J mice): 10-12 times basal levels | effect on CB1 receptors (CB1 receptors): desensitize CB1 receptors

CCCCCCC/C=C/C=C/C(=O)NCCc1ccc2c(c1)OCCO2 [N-(2,3-dihydro-1,4-benzodioxin-6-yl)ethyl dodeca-2E,4E-dienamide]
potency for AEA uptake relative to WOBE437 (times less potent) (AEA uptake in U937 cells): approximately 13 times | IC50 for AEA uptake inhibition (AEA uptake in U937 cells; 100 nM total AEA): nanomolar range

CCCCCCCC/C=C\CCCCCCCC(=O)N[C@@H](CO)Cc1ccc(O)cc1 [OMDM-2]
competition with 14C-WOBE437 binding [1]: could compete

CCCCC/C=C\C/C=C\C/C=C\C/C=C\CCCC(=O)NCc1ccoc1 [UCM707]
substrate of FAAH or MAGL ([2]; h/rFAAH or hMAGL): substrates for h/rFAAH or hMAGL

CCCCC/C=C\C/C=C\C/C=C\C/C=C\CCCC(=O)Nc1ccc(O)cc1C [VDM11, N-(2-methyl-4-hydroxy-phenyl)-arachidonamide]
substrate of FAAH or MAGL [2]: substrates for h/rFAAH or hMAGL

CN(Cc1cccc(-c2ccncc2)c1)C(=O)Oc1ccc(-c2ccc(C(N)=O)cc2)cc1 [WWL70, reference compound]
effect on 2-AG uptake and hydrolysis [3]: prevented 2-AG uptake and hydrolysis occurring at later time points

CCCCCCC/C=C/C=C/C(=O)NCCc1ccc(OC)c(OC)c1 [^14C-WOBE437]
Bmax ([1]; U937 membranes): 15.6±1.4 fmol/mg protein | Kd ([1]; U937 membranes): 11.3 ± 2.4 nM | Bmax [4]: 18.2±1.5 fmol/mg protein | Kd ([4]; read-out: Kd): 15.7 ± 2.8 nM | membrane-associated signal (U937 cells; 10 nM): 9.8 % of total signal | membrane-associated signal (U937 cells; 100 nM): 1.7 % of total signal | cell-associated radioactive signal over time (U937 cells; 100 nM, 0-30 min): approximately 10 % of total signal | membrane-associated signal (U937 cells; 1 μM): 0.7 % of total signal | membrane-associated signal (U937 cells; 10 μM): 0.7 % of total signal | radioactive signal in extracellular and membrane-bound fractions (U937 cells; U937 cells, 15 min, 37° C.): 75-90% | radioactive signal in intracellular fraction (U937 cells; U937 cells, 15 min, 37° C.): 5-9% | tissue distribution of 14C signal [5]: highest ^14C signal was measured in adipose tissue

CCCCC/C=C\C/C=C\C/C=C\C/C=C\CCCCOC(CO)CO [noladin ether]
competition with 14C-WOBE437 binding [1]: could compete

CCCCCCCC=CC=CC(=O)NCc1cccnc1 [pyridin-3-ylmethyl]
IC50 (AEA uptake in U937 cells; 100 nM total AEA): 2690 nM

CCCCCCCC=CC=CC(=O)NCCc1ccccc1 [unsubstituted parent compound]
IC50 (AEA uptake in U937 cells; 100 nM total AEA): 1140 nM

benzodioxole
potency for AEA uptake relative to WOBE437 (times less potent) (AEA uptake in U937 cells): approximately 13 times
